{"source": "paper PMC6158189", "about": "“A pharmacological probe identifies cystathionine β-synthase as a new negative regulator for ferroptosis” (Cell Death & Disease, 2018)", "key": {"[1]": {"target": "T1, hCBS-FL (Homo sapiens, UniProt P35520)", "T1 sequence (P35520 1-551)": "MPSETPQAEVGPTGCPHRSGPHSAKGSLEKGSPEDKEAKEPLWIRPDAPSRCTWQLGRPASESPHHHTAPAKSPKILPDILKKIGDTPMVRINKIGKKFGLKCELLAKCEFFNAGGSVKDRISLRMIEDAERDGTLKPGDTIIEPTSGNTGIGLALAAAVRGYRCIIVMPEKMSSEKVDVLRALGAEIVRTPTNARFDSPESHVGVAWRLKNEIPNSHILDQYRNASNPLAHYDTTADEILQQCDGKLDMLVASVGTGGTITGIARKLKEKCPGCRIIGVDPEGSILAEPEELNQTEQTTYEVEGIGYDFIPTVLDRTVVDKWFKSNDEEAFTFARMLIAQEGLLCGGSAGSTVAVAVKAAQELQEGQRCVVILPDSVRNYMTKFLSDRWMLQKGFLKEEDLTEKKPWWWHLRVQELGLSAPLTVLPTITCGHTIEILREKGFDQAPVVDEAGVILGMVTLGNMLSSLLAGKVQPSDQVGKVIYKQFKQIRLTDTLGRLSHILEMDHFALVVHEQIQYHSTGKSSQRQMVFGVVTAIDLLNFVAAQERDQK", "experiment": "purified hCBS full-length enzyme assay", "format": "biochemical", "set-up": "human CBS or hCSE full-length (CBS-FL or CSE) was subcloned into pGEX-KG, pcDNA3 or pCDH vector; GST (N); made in house; host or cells: E. coli BL21", "details": "standard conditions", "experimental": "The IC50 values of CH004 for hCBS-413, hCBS-413 mutants, hCBS-FL, hCSE or hDDC were determined according to the standard assay conditions otherwise indicated.\n^2The IC50 were determined for hCBS-FL."}, "[2]": {"target": "T2, hCBS (GST-tagged CBS-413) (Homo sapiens, UniProt P35520)", "T2 construct": "hCBS-413 (a C-terminal truncated hCBS 1–413); made in house; host or cells: E. coli BL21", "experiment": "surface plasmon resonance (BIAcore T200)", "format": "binding", "details": "0.097–12.5 µM injected over hCBS-coated chip; read-out: KD (SPR)", "experimental": "Surface Plasmon Resonance assays (SPR) with a BIAcore T200 (GE Healthcare, Uppsala, Sweden) were used to observe the direct interaction between inhibitors and hCBS. The SPR assay was performed in running buffer (1× PBS with 0.05% P20) and the purified GST-tagged CBS-413 (500 μg/mL) was immobilized onto a flow cell of a CM5 sensor chip using a GST antibody coupling kit in running buffer. The KD values were determined with the Biacore evaluation 3.1 software.\nFigure S2. The mode of action of CH004 in inhibiting hCBS. […] After incubation with DMSO or CH004 at 10 μM for 40 min, hCBS (20 μM) was diluted 200-fold and the activity was measured according to the standard assay protocol (Materials and Methods). The data are presented as percentages of control (CTR; DMSO, 100%) and shown as means ± SDs (n = 5). The effects of 0.05 and 10 μM CH004 on hCBS (100 nM) without pre-incubation were defined as positive control (PC) and negative control (NC), respectively. (B) Inhibition of hCBS by CH004 as a function of PLP concentration with Cys (20 mM) together with Hcys (10 mM) as substrates (non-competitive inhibition constant αKi=15.2 ± 4.9 μM). […] The αKi or αKi’ values were calculated by using the non-linear fitting method for enzyme kinetics in GraphPad Prism 5. […] Dissociation constants for CH004 (KD) were calculated by using Biacore evaluation software (Materials and Methods)."}}, "note": "Values joined by “and” are separate entries in the source; they are usually repeats but may differ in a detail not shown here. Equal entries are not always repeated."}
{"smiles": "Cn1nc(Cc2ccccc2)nc2c(=O)n(C)c(=O)nc1-2", "note": "[CH004, 3-benzyl-1,6-dimethylpyrimido[5,4-e][1,2,4]triazine-5,7(1H,6H)-dione]", "values": [{"measurement": "IC50", "setting": "[1]", "result": "~590 nM and 590 nM"}, {"measurement": "Kd", "setting": "[2]", "result": "600 ± 300", "unit": "nM"}]}
